{"source": "paper PMC12455130", "about": "“Multifunctional molecular agent for tau-targeted combinational therapy of Alzheimer’s disease” (The Journal of Biological Chemistry, 2025)", "assay": "UV-visible titration and Job's plot, coordination to Cu2+", "type": "physicochemical", "settings": "for Job's plot isosbestic point, mol fraction of Cu2+: 5 mM total in DMSO; for coordination stoichiometry with Cu2+: Job's method, 5 mM in DMSO", "experimental": "The UV–visible spectrum was used to reveal their coordination properties to Cu^2+. […] The increased absorption at 481 nm and 475 nm (Fig. 3, A and B, inset) definitely indicated the complexation of 4GA–Cu^2+ and 2GA–Cu^2+, respectively. The coordination stoichiometry of 4GA and 2GA with Cu^2+ was determined by Job’s plot analysis (Fig. 3, C and D). […] However, their macrocyclic precursors (cyclen and N-methylated cyclen 2ME]) were evaluated to coordinate with Cu^2+ by 1:1 mode (Fig. S9). The different coordination mode with Cu^2+ was supposed to be the synergistic coordination effects of galloyl side arms, in addition to the central azacrown structure.\nThe chelating studies were performed on Hitachi U-2900 UV–visible spectrophotometer with a 10-mm quartz cell. For titration experiment, the UV absorption of test compound (1 mM in DMSO) was recorded in the presence of CuCl2 (0–6 equivalents of Cu^2+ for 4GA, 0–5 equivalents of Cu^2+ for 2GA, respectively). For Job’s method, a series of solution was prepared in which the total concentration of compound and Cu^2+ was fixed (5 mM in DMSO), but their proportions of ether component varied between 0% and 100%, and the UV spectra were analyzed to determine the ratio of ligand–Cu^2+.\nFigure S9. The chemical structure of cyclen derivates (upper), and the determination of the stoichiometry of complex (A) cyclen-Cu^2+, (B) 1ME-Cu^2+, (C) 2ME-Cu^2+, (D) 3ME-Cu^2+, (E) 4ME-Cu^2+ (5 mM) by Job’s method."}
{"compound": "CN1CCN(C(=O)c2cc(O)c(O)c(O)c2)CCN(C)CCN(C(=O)c2cc(O)c(O)c(O)c2)CC1", "note": "[2GA, (4,10-dimethyl-1,4,7,10-tetraazacyclododecane-1,7-diyl)bis((3,4,5-trihydroxyphenyl)methanone)]", "values": [{"measurement": "Job's plot isosbestic point, mol fraction of Cu2+", "value": 0.7, "unit": "mol fraction"}, {"measurement": "coordination stoichiometry with Cu2+", "value": "can bind with two Cu^2+ ions"}]}
{"compound": "O=C(c1cc(O)c(O)c(O)c1)N1CCN(C(=O)c2cc(O)c(O)c(O)c2)CCN(C(=O)c2cc(O)c(O)c(O)c2)CCN(C(=O)c2cc(O)c(O)c(O)c2)CC1", "note": "[4GA, (1,4,7,10-tetraazacyclododecane-1,4,7,10-tetrayl)tetrakis((3,4,5-trihydroxyphenyl)methanone)]", "values": [{"measurement": "Job's plot isosbestic point, mol fraction of Cu2+", "value": 0.7, "unit": "mol fraction"}, {"measurement": "coordination stoichiometry with Cu2+", "value": "can bind with two Cu^2+ ions"}]}
